The target in one experiment is human mGlu5 receptor (Homo sapiens (Human), UniProt P41594). Kind of experiment: Calcium fluorescence measurements, antagonist potency (negative allosteric modulator activity). Format: cell-based. Conditions: EC80 of quisqualate as agonist, compounds applied 10 minutes before agonist. The source says: (§1) Cell lines stably transfected were generated using inducible expression vectors encoding human mGlu5 receptor using the Tetracycline-Regulated Expression system (T-REx™ system, Invitrogen, Life Technologies). Human mGluR5 open reading frame (ORF), comprehensive of the stop codon, were cloned into the pcDNA4/TO/myc-His™ A vector, carrying the TetO2. The insertion site was HindIII-PstI for mGluR5 receptors. The obtained constructs were then transfected into the T-REx CHO™ cell line using the FuGENE protocol (Roche); the CHO T-REx™ cell line stably expresses the Tet repressor (from the pcDNA6/TR plasmid) under the selection of blasticidin, 10 μg/ml. Stable clones were obtained selecting with zeocin 1 mg/ml and maintaining in ULTRA CHO medium (LONZA) supplemented with dialyzed FBS, zeocin, blasticidine, at 37° C., in an atmosphere of 5% CO2. The expression of h-mGluR5 receptors was de-repressed with 1 μg/ml tetracycline for 18 h before binding experimentation, while the expression of h-mGluR5 receptors was derepressed respectively with 3 ng/ml and 10 ng/ml tetracycline for 18 h before calcium fluorescence experimentation.
Cells were seeded into black-walled, clear-bottom, 96-well plates at a density of 80000 cell/well, in RPMI (without Phenol Red, without L-glutamine; Gibco LifeTechnologies, CA) supplemented with 10% dialyzed FBS. Following 18-h incubation with tetracycline, the cells were loaded with […] Ca^2+-sensitive fluorescent dye Fluo-4/AM (Molecular Probes) in Hanks' balanced saline solution (HBSS, Gibco LifeTechnologies, CA) with […] Hepes (Sigma) and 2.5 mM probenecid (Sigma), for 1 h at 37° C. The cells were washed three times with HBSS to remove extracellular dye. Fluorescence signals were measured by using the fluorescence microplate reader Flexstation III (Molecular Devices) at sampling intervals of 1.5 s for 60 s.
The antagonist potency was determined using the EC80 of the quisqualate used as agonist and the potentiation of mGlu5 activation was determined using the EC20 of the agonist (quisqualate or glutamate). The compounds were applied 10 minutes before the application of the agonist.
The negative allosteric modulator activity (expressed as IC50) and the positive allosteric modulator activity (expressed as EC50) of the compounds of the invention for the mGlu5 receptors is between 0.1 and 1000 nM.
(§2) The inhibition curves of the tested compounds at cloned mGluR5 subtypes were determined by nonlinear regression analysis using software Prism 4.0 (Graphpad, San Diego, Calif.). The IC50 values and pseudo-Hill slope coefficients were estimated by the program. The values for the inhibition constant, Ki, were calculated according to the equation Ki=IC50/(1+[L]/Kd), where [L] is the concentration of radioligand and Kd is the equilibrium dissociation constant of the radioligand-receptor complex (Cheng et al., Biochem. Pharmacol. (1973), Vol. 22, pp. 3099-3108).

A further experiment has as its target human mGluR5 receptor (Homo sapiens (Human), UniProt P41594). Briefly: Radioligand binding assay at cloned human mGluR5 receptor subtype ([3H]MPEP). Conditions: 4 nM [3H]MPEP, CHO T-REx h-mGluR5 cells, 60 min at 25° C.; read-out: mGlu5 Ki.
Source text: as §1
Radioligand Binding Assay at Cloned Human mGluR5 Receptor Subtype
Affinity at transmembrane glutamate metabotropic cloned human mGluR5 receptor was evaluated according to the methods of Anderson (Anderson et al., J Pharmacol. Exp. Ther., (2002), Vol. 303(3), pp. 1044-51), with some modifications. Human cloned mGluR5 was obtained by re-suspending CHO T-REx h-mGluR5 cells (50 μg/well) in 20 mM HEPES, 2 mM MgCl2, 2 mM CaCl2, pH 7.4, that then were incubated in a final volume of 1 ml for 60 min at 25° C. with 4 nM [^3H]MPEP in the absence or presence of competing drugs. Non-specific binding was determined in the presence of 10 μM MPEP. The incubation was stopped by addition of cold Tris buffer pH 7.4 and rapid filtration through 0.2% polyethyleneimine pretreated Filtermat 1204-401 (Perkin Elmer) filters. The filters were then washed with cold buffer and the radioactivity retained on the filters was counted by liquid scintillation spectrometry (Betaplate 1204 BS-Wallac).
as §2

In the next experiment the test system is conscious rats. Briefly: Effect on cystometry in conscious rats. Format: in vivo, rat. Conditions: Minimal Effective Dose that induces statistically significant increase of bladder volume capacity. The protocol:
Male Sprague-Dawley rats [Crl:CD(SD) IGS BR] of 300-400 g b.w. supplied by Charles River Italia were used. The animals were housed with free access to food and water and maintained on a forced 12-hour-light/12-hour-dark cycle at 22-24° C. of temperature, except during the experiment. To quantify urodynamic parameters in conscious rats, cystometrographic studies were performed according to the procedure previously reported (Guarneri et al., Pharmacol. Res. Vol. 24, No. 2, pp. 175-187, 1991).
Briefly, the rats were anaesthetized by intraperitoneal administration of 3 ml/kg of Equithensin solution (pentobarbital 30 mg/kg and chloral hydrate 125 mg/kg) and placed in a supine position. An approximately 10 mm long midline incision was made in the shaved and cleaned abdominal wall. The urinary bladder was gently freed from adhering tissues, emptied and then cannulated via an incision in the bladder body, using a polyethylene cannula (0.58 mm internal diameter, 0.96 mm external diameter) which was permanently sutured with silk thread. […]
On the day of the experiment, the rats were placed in modified Bollman cages, i.e., restraining cages that were large enough to permit the rats to adopt a normal crouched posture, but narrow enough to prevent turning around. […] The intraluminal-pressure signal during infusion of saline into the bladder (cystometrogram) was continuously recorded on a polygraph (Rectigraph-8K San-ei with BM614/2 amplifier from Biomedica Mangoni) or stored on PC by data acquisition system (PowerLab, Chart 4 software, AD Instruments). From the cystometrogram, bladder volume capacity (BVC) was evaluated. […] Basal BVC value was evaluated as the mean of the values observed in the cystometrograms recorded in an initial period of 30-60 minutes. […] The bladder infusion restarted and changes in BVC were evaluated from the mean values obtained in the cystometrograms observed during 1, 2, and 3 hours after treatment. […]
Each experimental group was composed of 4-11 animals. All data were expressed as mean±standard error. […]

human mGlu5 receptor, sequence (P41594 21-1212): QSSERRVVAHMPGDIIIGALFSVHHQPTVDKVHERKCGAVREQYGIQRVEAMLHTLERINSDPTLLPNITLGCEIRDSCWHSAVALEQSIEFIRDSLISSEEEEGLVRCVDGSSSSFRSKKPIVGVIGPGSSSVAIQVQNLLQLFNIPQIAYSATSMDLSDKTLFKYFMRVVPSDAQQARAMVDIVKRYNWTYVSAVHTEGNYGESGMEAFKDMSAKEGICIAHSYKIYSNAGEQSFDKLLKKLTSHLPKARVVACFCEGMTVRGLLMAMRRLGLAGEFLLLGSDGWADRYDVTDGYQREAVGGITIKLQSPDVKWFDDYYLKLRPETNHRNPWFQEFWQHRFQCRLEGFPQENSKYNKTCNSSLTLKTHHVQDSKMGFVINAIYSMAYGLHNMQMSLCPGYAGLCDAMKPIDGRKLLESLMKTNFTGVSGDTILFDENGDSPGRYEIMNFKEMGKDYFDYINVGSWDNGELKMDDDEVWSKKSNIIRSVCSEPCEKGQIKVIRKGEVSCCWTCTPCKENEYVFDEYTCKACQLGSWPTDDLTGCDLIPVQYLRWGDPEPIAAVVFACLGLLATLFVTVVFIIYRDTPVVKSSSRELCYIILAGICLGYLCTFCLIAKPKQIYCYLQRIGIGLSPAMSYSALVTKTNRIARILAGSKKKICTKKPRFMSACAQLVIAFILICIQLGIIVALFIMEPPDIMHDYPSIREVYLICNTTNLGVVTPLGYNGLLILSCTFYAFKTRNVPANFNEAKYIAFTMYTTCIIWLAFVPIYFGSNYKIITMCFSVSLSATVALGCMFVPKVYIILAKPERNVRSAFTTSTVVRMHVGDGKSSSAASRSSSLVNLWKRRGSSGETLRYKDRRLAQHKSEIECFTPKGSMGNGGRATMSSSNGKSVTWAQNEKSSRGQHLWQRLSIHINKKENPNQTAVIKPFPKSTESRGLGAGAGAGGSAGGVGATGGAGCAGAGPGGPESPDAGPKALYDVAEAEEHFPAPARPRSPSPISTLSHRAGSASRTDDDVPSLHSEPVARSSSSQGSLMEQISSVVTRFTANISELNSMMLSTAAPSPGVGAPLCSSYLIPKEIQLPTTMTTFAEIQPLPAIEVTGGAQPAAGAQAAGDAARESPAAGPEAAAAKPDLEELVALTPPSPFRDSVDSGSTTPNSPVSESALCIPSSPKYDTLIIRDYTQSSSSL
human mGluR5 receptor, sequence (P41594 21-1212): as above

Regarding `CCOC(=O)N1CC/C(=C\C#Cc2cc(C#N)ccn2)C(C)(C)C1` [Example 31, ethyl (4E)-4-[3-(4-cyanopyridin-2-yl)prop-2-yn-1-ylidene]-3,3-dimethylpiperidine-1-carboxylate], the IC50 (in general, the concentration that gives 50% inhibition) at human mGlu5 receptor stood at 13.5 nM. Moreover, the inhibition constant (Ki) (as a rule, the equilibrium dissociation constant of an inhibitor or competing ligand from its target) at human mGluR5 receptor stood at 2.93 nM. In addition, the ““In vivo” cystometry MED (mg/kg os)” value in the experiment on conscious rats was determined as 1 mg/kg.
Take `CCOC(=O)N1CC/C(=C\C#Cc2cccc(Cl)c2)C1(C)C` [Example 101, ethyl (3E)-3-[3-(3-chlorophenyl)prop-2-yn-1-ylidene]-2,2-dimethylpyrrolidine-1-carboxylate]: the IC50 on human mGlu5 receptor stood at 66.3 nM. For the same molecule, at human mGluR5 receptor, the Ki amounted to 11.2 nM.
Taken in the same sequence, the figures for `CCOC(=O)N1CC/C(=C\C#Cc2cc(Cl)ccn2)C1(C)C` [Example 91, ethyl (3E)-3-[3-(4-chloropyridin-2-yl)prop-2-yn-1-ylidene]-2,2-dimethylpyrrolidine-1-carboxylate] were 31.6 nM and 16.3 nM.
In the case of `CCOC(=O)N1CC/C(=C\C#Cc2cccc(CC#N)c2)C(C)(C)C1` [Example 28, ethyl (4E)-4-{3-[3-(cyanomethyl)phenyl]prop-2-yn-1-ylidene}-3,3-dimethylpiperidine-1-carboxylate], the IC50 at human mGlu5 receptor stood at 37.2 nM. On human mGluR5 receptor, the Ki was 2.12 nM.
Take `CCOC(=O)N1CC/C(=C\C#Cc2cccc(C(F)(F)F)c2)C(C)(C)C1` [Example 22, ethyl (4E)-3,3-dimethyl-4-{3-[3-(trifluoromethyl)phenyl]prop-2-yn-1-ylidene}piperidine-1-carboxylate]: the IC50 at human mGlu5 receptor was 66.3 nM. Besides, the Ki at human mGluR5 receptor is 1.9 nM.
The like results for `CCOC(=O)N1CC/C(=C\C#Cc2cc(F)cc(C#N)c2)C(C)(C)C1` [Example 32, ethyl (4E)-4-[3-(3-cyano-5-fluorophenyl)prop-2-yn-1-ylidene]-3,3-dimethylpiperidine-1-carboxylate] were, in that order, 60 nM and 16.1 nM.
Turning to `CCOC(=O)N1CC/C(=C\C#Cc2cc(OC)ccn2)C(C)(C)C1` [Example 25, ethyl (4E)-4-[3-(4-methoxypyridin-2-yl)prop-2-yn-1-ylidene]-3,3-dimethylpiperidine-1-carboxylate], at human mGlu5 receptor, the IC50 stood at 31.8 nM. For the same molecule, the Ki at human mGluR5 receptor came to 28.6 nM.
As for `CCOC(=O)N1CC/C(=C\C#Cc2cccc(C)n2)C1(C)C` [Example 48, ethyl (3E)-2,2-dimethyl-3-[3-(6-methylpyridin-2-yl)prop-2-yn-1-ylidene]pyrrolidine-1-carboxylate], the IC50 at human mGlu5 receptor was found to be 2.02 nM. In addition, the Ki on human mGluR5 receptor was 2.44 nM. In addition, in the experiment on conscious rats, the ““In vivo” cystometry MED (mg/kg os)” value was 1 mg/kg.
As for `COC(=O)N1CC/C(=C\C#Cc2cccc(Cl)c2)C(C)(C)C1` [Example 40, methyl (4E)-4-[3-(3-chlorophenyl)prop-2-yn-1-ylidene]-3,3-dimethylpiperidine-1-carboxylate], the IC50 at human mGlu5 receptor was 18.2 nM. For the same molecule, the Ki at human mGluR5 receptor stood at 1.29 nM. Besides, the ““In vivo” cystometry MED (mg/kg os)” value in the experiment with conscious rats amounted to 3 mg/kg.
With `CCOC(=O)N1CC/C(=C\C#Cc2cccc(C#N)c2)C(C)(C)C1` [Example 27, ethyl (4E)-4-[3-(3-cyanophenyl)prop-2-yn-1-ylidene]-3,3-dimethylpiperidine-1-carboxylate], the IC50 on human mGlu5 receptor amounted to 8.6 nM. Moreover, the inhibition constant (Ki) at human mGluR5 receptor was found to be 0.64 nM.
